Experimental data taken from patent publication US20250353891A1 (MEDIMMUNE LIMITED, priority 2022, published 2025).
Values joined by “and” are separate entries in the source; they are usually repeats but may differ in a detail not shown here. Equal entries are not always repeated. Starred links: 1 amine or outer side, 2 acyl side, 3 side chain; linkers in the order of their positions; H or OH if unused. Non-standard residues stand in square brackets, D forms with d. Residues, ends and D or L forms follow the SMILES beside them. Groups on a side chain read outwards from the residue. *: point of attachment. Dip = N[C@H](C(=O)O)C(c1ccccc1)c1ccccc1; γGlu = O=C(O)[C@H](CCC(=O)[*:2])N[*:1]; Stearoyl = CCCCCCCCCCCCCCCCCC(=O)*; αMeF = C[C@](N)(Cc1ccccc1)C(=O)O; Nle = CCCC[C@H](N)C(=O)O; PEG2 = NCCOCCOCCC(=O)O; Aib = CC(C)(N)C(=O)O

Legend:
[1] = Mouse acute food intake study; assay type: in vivo; details: male C57Bl/6 mice, s.c., cumulative food intake at 24 hr vs vehicle
In short: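 Single-housed male C57Bl/6 mice (8-9 weeks on arrival), chow-fed, acclimated and sham-dosed ≥2 times, were fasted 6-8 h, then given vehicle or peptide subcutaneously at 5 mL/kg 1-2 h before lights out. Food intake was recorded automatically over 48 h and analysed as cumulative intake.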

[2] = Proteolytic resistance to FasSSIF/Pancreatin; assay type: in vitro ADME; details: simulated intestinal fluid
Description: A fresh suspension of FasSSIF/P (Fasted-State Simulated Intestinal Fluid+USP Pancreatin®) was prepared according to that described by Galia, Nicolaides, Hörter, Löbenberg, Reppas and Dressman: Pharm. Res. 15 (1998) 698-705, and USP XL requirements. The resulting preparation was used immediately without storage.
Peptide for evaluation (1.0 mg) was dissolved in pre-warmed FasSSIF without Pancreatin® (200 μL). To this fresh FasSSIF/Pancreatin® (100 μL) was added to initiate potential proteolysis. Following momentary vortexing of the reaction tube the mixture was incubated at 37° C. in a thermostatic water bath for the duration of the experiment. 25 μL aliquot of the co-incubated peptide-enzyme mixture was periodically withdrawn (t=0, 5, 10 15 and 30 min) and quenched immediately by addition to a solution of 10% TFA in 1:1 water/acetonitrile (75 μL) to arrest proteolytic activity. Quenched samples were centrifuged (7800 RPM, 3 mins) to pellet solids and 10 μL aliquots of the supernatant solution were analyzed using analytical RP-HPLC as follows: Analytical RP-HPLC method: Agilent Polaris C8-A column (4.6×100 mm, 3 micron) eluted with a linear binary gradient of 10-90% MeCN (0.1% TFA v/v) in water (0.1% TFA v/v) over either 10 or 15 mins at 1.5 mL min^−1 at 40° C. with detection by UV absorption at 210 nm. Manual integration (AUC) allowed estimation of remaining intact peptide over the time course of the experiment.

[3] = molecular target: human GLP-1 receptor (hGLP-1R) (Homo sapiens, UniProt P43220); assay: cAMP production (HTRF) in CHO cells expressing hGLP-1R; assay type: cell-based; design: expressed in transfected cells; details: for EC50: Table 6, peptides modified at position 17, cAMP in CHO hGLP-1R cells, geometric mean, read-out: hGLP-1R EC50; for % Relative Potency Ratio: Table 6, % GLP-1R activity relative to GLP-1 / % GlucR activity relative to glucagon
Chain of human GLP-1 receptor (hGLP-1R) (P43220 24-463): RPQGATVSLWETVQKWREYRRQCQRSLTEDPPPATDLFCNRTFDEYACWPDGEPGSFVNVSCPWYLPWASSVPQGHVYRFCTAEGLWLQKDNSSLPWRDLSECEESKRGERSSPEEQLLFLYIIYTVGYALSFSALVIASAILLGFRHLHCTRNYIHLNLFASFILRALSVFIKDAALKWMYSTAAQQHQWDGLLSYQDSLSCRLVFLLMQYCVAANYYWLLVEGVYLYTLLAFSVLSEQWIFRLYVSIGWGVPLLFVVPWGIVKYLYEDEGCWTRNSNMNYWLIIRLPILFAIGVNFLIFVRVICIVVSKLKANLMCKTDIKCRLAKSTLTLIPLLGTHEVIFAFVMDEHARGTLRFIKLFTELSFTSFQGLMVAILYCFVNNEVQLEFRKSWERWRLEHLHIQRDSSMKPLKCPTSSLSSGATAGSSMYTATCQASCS
In short: (§1)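 Potency values represent EC50 from 4-parameter logistic curves of HTRF % Delta F signal. Receptor-expressing CHO cells (hGCGR 2×10^5 cells/mL, hGLP-1R 1×10^5 cells/mL) were exposed for 30 min at room temperature before two-step cAMP detection.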

[4] = molecular target: human glucagon receptor (hGCGR) (Homo sapiens, UniProt P47871); assay: cAMP production (HTRF) in CHO cells expressing hGCGR; assay type: cell-based; design: expressed in transfected cells; details: Table 6, peptides modified at position 17; cAMP in CHO hGCGR cells; geometric mean; read-out: hGluc-R EC50
Chain of human glucagon receptor (hGCGR) (P47871 26-477): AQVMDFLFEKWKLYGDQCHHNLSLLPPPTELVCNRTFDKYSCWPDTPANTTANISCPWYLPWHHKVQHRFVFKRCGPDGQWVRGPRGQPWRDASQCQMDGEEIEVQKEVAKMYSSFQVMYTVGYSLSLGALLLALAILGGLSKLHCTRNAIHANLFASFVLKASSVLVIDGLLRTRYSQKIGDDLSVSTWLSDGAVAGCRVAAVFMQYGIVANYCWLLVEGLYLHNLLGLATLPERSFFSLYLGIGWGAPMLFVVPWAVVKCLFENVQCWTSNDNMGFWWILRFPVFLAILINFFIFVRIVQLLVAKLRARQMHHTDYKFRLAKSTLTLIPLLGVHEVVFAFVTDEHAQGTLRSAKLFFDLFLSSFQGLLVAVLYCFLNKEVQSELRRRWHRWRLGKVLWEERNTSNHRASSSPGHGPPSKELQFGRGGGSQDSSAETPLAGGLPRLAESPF
In short: as §1

[5] = system: GLP-1R knockout (KO) mice; assay: Glucose change in GLP-1R knockout mice; assay type: in vivo, mouse; details: GLP-1R KO mice, s.c.; for GLP-1R KO % glucose change 120 min: 120 min vs 0 min; for GLP-1R KO % glucose change - 60 min: 60 min vs 0 min
Description: (§2) They acclimated for a minimum of ˜1-2 weeks, and mice were sorted into groups (n=4-8/group) based on body weight. On day of study, mice were fasted briefly for 2 hrs prior to study start. In some studies, mice were pre-treated with octreotide (BaChem, 10 mg/kg) at 30 minutes prior to peptide injection. Glucose was measured via glucometer at various timepoints including-30 min (prior to octreotide when used in studies), 0 min (before peptide dose), 30, 60, 120, 180, 240, and 360 minutes. Since these studies are acute in nature, mice were re-used for multiple studies (no more than 3) and always allowed at least a minimum wash-out period of 1 week.

wildtype (WT) mice = assay: Glucose change in wildtype mice; assay type: in vivo, mouse; details: s.c.; for WT % glucose change 120 min: 120 min vs 0 min; for WT % glucose change 60 min: 60 min vs 0 min
Description: as §2, with “GLP-1R knockout (KO) and wildtype (WT) mice at 8-14 weeks of age were singly housed on standard chow diet (Envigo, 2918) and automatic water. They” for “They”

[6] = 3 nmol/kg, no somatostatin pretreatment
[7] = 10 nmol/kg, somatostatin pretreatment (octreotide) 30 min prior to cpd
[8] = 30 nmol/kg, somatostatin pretreatment (octreotide) 30 min prior to cpd
[9] = 10 nmol/kg, no somatostatin pretreatment
[10] = 30 nmol/kg, no somatostatin pretreatment

For `CCCCCCCCCCCCCCCCCC(=O)N[C@@H](CCC(=O)N[C@@H](CCC(=O)NCCOCCOCCC(=O)NCCOCCOCCC(=O)NCCCC[C@H](NC(=O)[C@H](CO)NC(=O)[C@H](CC(=O)O)NC(=O)[C@H](CC(C)C)NC(=O)[C@@H](NC(=O)[C@H](CCCCN)NC(=O)[C@H](CO)NC(=O)[C@@H](NC(=O)[C@H](CC(=O)O)NC(=O)[C@H](CO)NC(=O)[C@@H](NC(=O)[C@](C)(Cc1ccccc1)NC(=O)[C@H](CO)NC(=O)CNC(=O)[C@H](CCC(N)=O)NC(=O)[C@H](CO)NC(=O)[C@@H](N)Cc1c[nH]cn1)[C@@H](C)O)C(C)C)C(c1ccccc1)c1ccccc1)C(=O)N[C@@H](C)C(=O)N[C@@H](C)C(=O)N[C@@H](CCC(N)=O)C(=O)N[C@@H](CC(=O)O)C(=O)N[C@@](C)(Cc1ccccc1)C(=O)N[C@H](C(=O)N[C@@H](CCC(=O)O)C(=O)NC(C)(C)C(=O)N[C@H](C(=O)N[C@H](C(=O)N[C@@H](CC(N)=O)C(=O)N[C@H](C(N)=O)[C@@H](C)O)[C@@H](C)CC)[C@@H](C)CC)C(C)C)C(=O)O)C(=O)O` [Peptide 50] (H-HSQGS[αMeF]TSDVSK[Dip]LDSK([PEG2-PEG2-γGlu-γGlu-Stearoyl])AAQD[αMeF]VE[Aib]IINT-NH2), the “24 hr % Vehicle Food Intake” value ([1]; dose 10 nmol/kg) was 78.5%, the remaining at 0.5 h, 3.3 mg/mL [2] was 98% and the EC50 [3] was 4.9 pM. For the same molecule, the “% Relative Potency Ratio” value [3] was 3.5 and the EC50 [4] was 8.74 pM.

For `CCCCCCCCCCCCCCCCCC(=O)N[C@@H](CCC(=O)N[C@@H](CCC(=O)NCCOCCOCCC(=O)NCCOCCOCCC(=O)NCCCC[C@H](NC(=O)[C@H](CO)NC(=O)[C@H](CC(=O)O)NC(=O)[C@H](CC(C)C)NC(=O)[C@](C)(Cc1ccccc1)NC(=O)[C@H](CCCCN)NC(=O)[C@H](CO)NC(=O)[C@@H](NC(=O)[C@H](CC(=O)O)NC(=O)[C@H](CO)NC(=O)[C@@H](NC(=O)[C@H](Cc1ccccc1)NC(=O)[C@@H](NC(=O)CNC(=O)[C@H](CCC(N)=O)NC(=O)C(C)(C)NC(=O)[C@@H](N)Cc1c[nH]cn1)[C@@H](C)O)[C@@H](C)O)C(C)C)C(=O)N[C@@H](CCCNC(=N)N)C(=O)N[C@@H](C)C(=O)N[C@@H](CCC(N)=O)C(=O)N[C@@H](CC(=O)O)C(=O)N[C@@](C)(Cc1ccccc1)C(=O)N[C@H](C(=O)N[C@@H](CCC(N)=O)C(=O)NC(C)(C)C(=O)N[C@@H](CC(C)C)C(=O)N[C@@H](CCCC)C(=O)N[C@@H](CCC(=O)O)C(=O)N[C@H](C(N)=O)[C@@H](C)O)C(C)C)C(=O)O)C(=O)O` [Peptide 69] (H-H[Aib]QGTFTSDVSK[αMeF]LDSK([PEG2-PEG2-γGlu-γGlu-Stearoyl])RAQD[αMeF]VQ[Aib]L[Nle]ET-NH2; N-terminus assumed), the “24 hr % Vehicle Food Intake” value ([1]; dose 10 nmol/kg) was 74.3%, the “GLP-1R KO % glucose change 120 min” value [5, 6] was 17.6% and the “WT % glucose change 120 min” value (wildtype (WT) mice; [6]) was −27.2%. The “% Relative Potency Ratio” value [3] was 11.1.

With `CCCCCCCCCCCCCCCCCC(=O)N[C@@H](CCC(=O)N[C@@H](CCC(=O)NCCOCCOCCC(=O)NCCOCCOCCC(=O)NCCCC[C@H](NC(=O)[C@H](CO)NC(=O)[C@H](CC(=O)O)NC(=O)[C@H](CC(C)C)NC(=O)C(C)(C)NC(=O)[C@H](CCCCN)NC(=O)[C@H](CO)NC(=O)[C@@H](NC(=O)[C@H](CC(=O)O)NC(=O)[C@H](CO)NC(=O)[C@@H](NC(=O)[C@](C)(Cc1ccccc1)NC(=O)[C@H](CO)NC(=O)CNC(=O)[C@H](CCC(N)=O)NC(=O)[C@H](CO)NC(=O)[C@@H](N)Cc1c[nH]cn1)[C@@H](C)O)C(C)C)C(=O)N[C@@H](C)C(=O)N[C@@H](C)C(=O)N[C@@H](CCC(N)=O)C(=O)N[C@@H](CC(=O)O)C(=O)N[C@@](C)(Cc1ccccc1)C(=O)N[C@H](C(=O)N[C@@H](CCC(N)=O)C(=O)NC(C)(C)C(=O)N[C@H](C(=O)N[C@@H](C)C(=O)N[C@@H](CC(N)=O)C(N)=O)[C@@H](C)CC)C(C)C)C(=O)O)C(=O)O` [Peptide 97] (H-HSQGS[αMeF]TSDVSK[Aib]LDSK([PEG2-PEG2-γGlu-γGlu-Stearoyl])AAQD[αMeF]VQ[Aib]IAN-NH2; N-terminus assumed) the “GLP-1R KO % glucose change 120 min” value [5, 7] was 91.1%, the “GLP-1R KO % glucose change 120 min” value [5, 8] was 150.8% and the “WT % glucose change 120 min” value (wildtype (WT) mice; [7]) was −41.9%. The “WT % glucose change 120 min” value (wildtype (WT) mice; [8]) was −14.7%, the EC50 [3] was 1.05 pM and the “% Relative Potency Ratio” value [3] was 24.3. For the same molecule, the EC50 [4] was 13 pM.

In the case of `CC(C)C[C@H](NC(=O)[C@H](Cc1c[nH]c2ccccc12)NC(=O)[C@H](CCC(N)=O)NC(=O)[C@@H](NC(=O)[C@H](Cc1ccccc1)NC(=O)[C@H](CC(=O)O)NC(=O)[C@H](CCCNC(=N)N)NC(=O)[C@H](C)NC(=O)[C@H](CCCNC(=N)N)NC(=O)[C@H](CCCCNC(=O)COCCOCCNC(=O)COCCOCCNC(=O)CC[C@H](NC(=O)CCCCCCCCCCCCCCCCCCC(=O)O)C(=O)O)NC(=O)[C@@H](NC(=O)[C@H](CC(=O)O)NC(=O)[C@H](CC(C)C)NC(=O)[C@](C)(Cc1ccccc1)NC(=O)[C@H](CCCCN)NC(=O)[C@H](CO)NC(=O)[C@@H](NC(=O)[C@H](CC(=O)O)NC(=O)[C@H](CO)NC(=O)[C@@H](NC(=O)[C@H](Cc1ccccc1)NC(=O)[C@@H](NC(=O)CNC(=O)[C@H](CCC(N)=O)NC(=O)C(C)(C)NC(=O)[C@@H](N)Cc1c[nH]cn1)[C@@H](C)O)[C@@H](C)O)C(C)C)[C@@H](C)O)C(C)C)C(=O)N[C@@H](CC(C)C)C(=O)N[C@@H](CCC(=O)O)C(=O)NC(C)(C)C(=O)NCC(=O)O` [Peptide 195, H-Aib-Q-G-T-F-T-S-D-V—S-K-αMePhe-L-D-T-K-R-A-R-D-F-V-Q-W-L-L-E-Aib-G-acid], the “24 hr % Vehicle Food Intake” value ([1]; dose 1 nmol/kg) is reported as 102.1%, the “24 hr % Vehicle Food Intake” value ([1]; dose 3 nmol/kg) is reported as 84.0% and the “24 hr % Vehicle Food Intake” value ([1]; dose 10 nmol/kg) is reported as 58.2% and 49.9%. For the same molecule, the “GLP-1R KO % glucose change - 60 min” value [5, 9] was 35.3%, the “GLP-1R KO % glucose change - 60 min” value [5, 10] was 48.0% and the “WT % glucose change 60 min” value (wildtype (WT) mice; [9]) was 1.4%. The “WT % glucose change 60 min” value (wildtype (WT) mice; [10]) was −17.0%.
